# Assay results taken from patent US20240358726A1, “SPECIFIC T[…] MARIJUANA DOSES FOR STRESS AND PAIN” (Yale University, priority 2021, published 2024).
# Tests used:
# Format in all cases: in vivo, human
# [1] = Plasma levels of CBD and THC after acute dose (Example 1 cross-over study); conditions: over the course of 4.45 hours (285 minutes), recreational marijuana users
# Method: FIGS. 1A-1B: Plasma levels of CBD and THC—adjusted for baseline, for each of the dose conditions over the course of […] (285 minutes).
# (§1) Sessions were completed one-week apart to allow for an adequate washout period between sessions.
# [2] = tested on: recreational marijuana users; test: Wanting More Drug rating (drug craving) after acute dose; conditions: adjusted for baseline
# Excerpt: (§2) FIGS. 2A-2D: Blood Pressure, Pulse and Wanting More Drug Rating, adjusted for Baseline.
# as §1
# [3] = tested on: recreational marijuana users; test: Provoked pain and anxiety ratings during adapted CPT protocol; conditions: versus 40 CBD+20 THC, 100 CBD alone and 40 CBD alone; CBD alone versus CBD with low doses of THC (4:1 and 3:1)
# Excerpt: FIGS. 3A-3B: Provoked average pain and anxiety (adjusted for baseline) ratings during adapted CPT protocol.
# as §1
# (§3) The first study was directed towards assessing safety of the THC and CBD doses in healthy, recreational cannabis users. […] The novel pain provocation experimental method allowed for detection of this effect within this first safety protocol assessment.
# [4] = Blood pressure and pulse after acute dose (Example 1 safety study); conditions: recreational marijuana users
# Excerpt: as §2, §1, §3
SMILES,"plasma THC levels adjusted for baseline, relative to placebo [1]","average drug craving (want more drug), relative to placebo [2]","reducing pain and stress responses, comparison between dose conditions [3]","plasma CBD levels adjusted for baseline, relative to placebo [1]","diastolic BP adjusted for baseline, relative to placebo [4]"
"C=C(C)[C@@H]1CCC(C)=C[C@H]1c1c(O)cc(CCCCC)cc1O [CBD40, cannabidiol]",not,significantly reduced,–,–,–
"C=C(C)[C@@H]1CCC(C)=C[C@H]1c1c(O)cc(CCCCC)cc1O [CBD, cannabidiol]",–,–,not as effective,–,–
"C=C(C)[C@@H]1CCC(C)=C[C@H]1c1c(O)cc(CCCCC)cc1O [CBD100, cannabidiol]",not,significantly reduced,–,significantly increased,significantly increased
